From article PMC8214651, “Construction and characterization of a functional chimeric laccase from metagenomes suitable as a biocatalyst” (AMB Express, 2021)

Test system: T1, Lcc120-3 (Mic-mg-MCO120-3)
T1 construct: 98 residues Micromonospora sp; MP36 MCO N-terminus (parent WP_148798198.1) + 387-residue metagenomic core + 54 residues MP36 MCO C-terminus; MBP deleted; E. coli BL21(DE3)
Experiment: spectrophotometric oxidation at […] nm, Lineweaver-Burk plot
Type: biochemical
Conditions: 50 mM potassium phosphate pH 7.0, 30 °C, purified enzyme without MBP; read-out: Lcc120-3 (Mic-mg-MCO) / Km (mM)/Vmax (U/mg protein)/kcat (s^-1)

Question: How did the Km turn out when `COc1cccc(OC)c1O` [DMP, 2,6-dimethoxyphenol] was run?
Answer: 10.5 mM
